Measured values taken from patent US9840525B2, “Crystal form of tenofovir prodrug, preparation method thereof, and method of use thereof” (Jiangsu Hansoh Pharmaceutical Group Co., Ltd., priority 2014, dated 2017).

What was measured:
Stability Study = type: physicochemical; settings: for Appearance / Crystal Form / Product Purity: 30° C. ± 2° C./RH 65% ± 5%
Description: The stability of the new crystal form prepared by the method of Example 1 of the present invention was studied.

Flowability Study = type: physicochemical
Description: The flowability of the new crystal form prepared in Examples 1, 2 and 3 of the present invention was studied.

[1] = Determination of Absolute Bioavailability; settings: rat, in vivo; rats, intravenous administration and oral administration

## CC(C)OC(=O)C(C)(C)N[P@](=O)(CO[C@H](C)Cn1cnc2c(N)ncnc21)Oc1ccccc1.O=C(O)/C=C/C(=O)O [crystal form A, 9-[(R)-2-[[(S)-[[[1-(isopropoxycarbonyl)-1-methyl]ethyl]amino]phenoxyphosphinyl]methoxyl]propyl]adenine fumarate]
Stability Study; 0 month
  Appearance: off-white powder
  Crystal Form: Crystal form A
  Product Purity: 98.97%
Stability Study; 3 months
  Appearance: off-white powder
  Crystal Form: Crystal form A
  Product Purity: 98.95%
Stability Study; 6 months
  Appearance: off-white powder
  Crystal Form: Crystal form A
  Product Purity: 98.92%
Stability Study; room temperature
  Stability: stable at room temperature
Stability Study; stability test
  Chemical degradation in the stability test: did not undergo chemical degradation
  Crystal form transformation in the stability test: did not undergo transformation
Flowability Study
  Flowability: good flowability
Flowability Study; listed as Example 1
  Repose Angle: 36°
Flowability Study; listed as Example 2
  Repose Angle: 35°
Flowability Study; listed as Example 3
  Repose Angle: 34°
[1]
  bioavailability: 81%
